Test results published in patent publication US4889857A, “Quinolonecarboxylic acid compounds and pharmaceutical use thereof” (Yoshitomi Pharmaceutical Industries, Ltd., priority 1987, dated 1989).
≈ marks a conversion by molar mass, not a printed value. Like-named read-outs stand apart in the source and are kept apart here.

Key:
Assay type in all cases: cell-based
[1] = system: Staphylococcus aureus FDA 209P*; assay: Antibacterial activity in vitro (MIC), horse blood medium; settings: FDA209P
Method: (§1) The antibacterial activities in vitro (minimum inhibitory concentration, MIC, μg/ml) of the test compounds were measured according to the standard method of the Japanese Chemotherapy Society (Chemotherapy, Vol. 23, p.1126, 1974).
(§2) (Inoculum size: 10^6 cells/ml, Organisms with asterisk (*) were
(§3) cultivated in a 10% horse bloodadded medium.)

Pseudomonas cepacia 739 = assay: Antibacterial activity in vitro (MIC); settings: Burkholderia cepacia, inoculum 10^6 cells/ml
[2] = system: Enterobacter cloacae IFO 12937; assay: Antibacterial activity in vitro (MIC)
[3] = system: Staphylococcus epidermidis ATCC 12983; assay: Antibacterial activity in vitro (MIC)
E. coli KC-14 = assay: MIC of the infecting organism (Experiment 2); settings: Escherichia coli, KC14
Method: (§4) Experimental infection was caused by inoculating male mice intraperitoneally with each organism. Each of the test compounds was administered orally to the mice, one hour after the inoculation. The therapeutic effect of each compounds was judged by using a 50% effective dose (ED50) from the survival rate on day 7 after injection by the Probit method as described in Proc. Soc. Exp. Biol. Med., Vol. 57, p.261-264, 1944. The Minimum inhibitory concentrations (MIC) were also measured.

S. aureus Smith = assay: MIC of the infecting organism (Experiment 2); settings: Staphylococcus aureus; Table 2; read-out: MIC
Method: as §4

[4] = system: Staphylococcus aureus 308A-1; assay: Antibacterial activity in vitro (MIC)
[5] = system: Aerobacter aerogenes IFO 12979; assay: Antibacterial activity in vitro (MIC); settings: Klebsiella aerogenes, IFO12979
[6] = system: Streptococcus pyogenes E-14; assay: Antibacterial activity in vitro (MIC)
[7] = system: Streptococcus sarivaris IFO 13956; assay: Antibacterial activity in vitro (MIC)
[8] = system: Streptococcus pyogenes S-8; assay: Antibacterial activity in vitro (MIC)
[9] = system: Pseudomonas aeruginosa IFO 12582; assay: Antibacterial activity in vitro (MIC)
Method: as §1, §2, §3

Shigella flexneri EW-10 = assay: Antibacterial activity in vitro (MIC); settings: EW10, inoculum 10^6 cells/ml
Method: as §1, §2, §3

Shigella sonnei EW-33 = assay: Antibacterial activity in vitro (MIC); settings: EW33, inoculum 10^6 cells/ml
Method: as §1, §2, §3

[10] = system: Xanthomonas maltophilia IFO 12690; assay: Antibacterial activity in vitro (MIC); settings: Stenotrophomonas maltophilia, IFO12690; inoculum 10^6 cells/ml
Method: as §1, §2, §3

[11] = system: Staphylococcus epidermidis ATCC 12228; assay: Antibacterial activity in vitro (MIC)
Method: as §1, §2, §3

[12] = system: Morganella morganii IFO 3168; assay: Antibacterial activity in vitro (MIC); settings: IFO3168, inoculum 10^6 cells/ml, read-out: MIC
Method: as §1, §2, §3

[13] = system: Streptococcus sp. IFO 3535; assay: Antibacterial activity in vitro (MIC); settings: IFO3535, inoculum 10^6 cells/ml, 10% horse blood-added medium, read-out: MIC
Method: as §1, §2, §3

Escherichia coli O-111 = assay: Antibacterial activity in vitro (MIC); settings: O111, inoculum 10^6 cells/ml
Method: as §1, §2, §3

[14] = system: Pediococcus damnosus IFO 3895; assay: Antibacterial activity in vitro (MIC)
Method: as §1, §2, §3

[15] = system: Staphylococcus aureus 1840; assay: Antibacterial activity in vitro (MIC)
Method: as §1, §2, §3

[16] = system: Proteus vulgaris IFO 3988; assay: Antibacterial activity in vitro (MIC)
Method: as §1, §2, §3

[17] = system: Bacillus subtilis PCT 219; assay: Antibacterial activity in vitro (MIC)
Method: as §1, §2, §3

[18] = system: Pseudomonas aeruginosa U-31; assay: Antibacterial activity in vitro (MIC); settings: U31, inoculum 10^6 cells/ml, read-out: MIC
Method: as §1, §2, §3

[19] = system: Escherichia coli NIHJ JC-2; assay: Antibacterial activity in vitro (MIC)
Method: as §1, §2, §3

[20] = system: Acinetobacter calcoaceticus ATCC 13006; assay: Antibacterial activity in vitro (MIC)
Method: as §1, §2, §3

[21] = system: Pseudomonas putida IFO 12996; assay: Antibacterial activity in vitro (MIC); settings: IFO12996, inoculum 10^6 cells/ml, read-out: MIC
Method: as §1, §2, §3

[22] = system: Citrobacter freundii IFO 12681; assay: Antibacterial activity in vitro (MIC); settings: IFO12681, inoculum 10^6 cells/ml
Method: as §1, §2, §3

[23] = system: Streptococcus viridans America; assay: Antibacterial activity in vitro (MIC)
Method: as §1, §2, §3

[24] = system: Shigella typhosa Boxhill-58; assay: Antibacterial activity in vitro (MIC)
Method: as §1, §2, §3

[25] = system: Corynebacterium diphtheriae Tronto; assay: Antibacterial activity in vitro (MIC)
Method: as §1, §2, §3

[26] = system: Streptococcus lactis IFO 12546; assay: Antibacterial activity in vitro (MIC); settings: Lactococcus lactis, IFO12546; inoculum 10^6 cells/ml; 10% horse blood-added medium; read-out: MIC
Method: as §1, §2, §3

[27] = system: Serratia marcescens IFO 12648; assay: Antibacterial activity in vitro (MIC)
Method: as §1, §2, §3

[28] = system: Proteus mirabilis IFO 3849; assay: Antibacterial activity in vitro (MIC); settings: IFO3849, inoculum 10^6 cells/ml, read-out: MIC
Method: as §1, §2, §3

[29] = system: Staphylococcus aureus FDA 209P; assay: Antibacterial activity in vitro (MIC); settings: FDA209P
Method: as §1, §2, §3

Klebsiella pneumoniae DT = assay: Antibacterial activity in vitro (MIC)
Method: as §1, §2, §3

Escherichia coli T-7 = assay: Antibacterial activity in vitro (MIC); settings: T7, inoculum 10^6 cells/ml
Method: as §1, §2, §3

[30] = system: Streptocccus pneumoniae Type 1; assay: Antibacterial activity in vitro (MIC)
[31] = inoculum 10^6 cells/ml, 10% horse blood-added medium, read-out: MIC
[32] = inoculum 10^6 cells/ml, read-out: MIC

With CNCC1CN(c2c(F)cc3c(=O)c(C(=O)O)cn(C4CC4)c3c2F)CCO1 (stereo not shown) [Compound A, 1-cyclopropyl-6,8-difluoro-1,4,-dihydro-7-[2-(methylaminomethyl)morpholino]-4-oxoquinoline-3-carboxylic acid] the MIC [1] was 0.025 µg/mL (≈ 0.0636 µM), the MIC (Pseudomonas cepacia 739) was 1.56 µg/mL (≈ 3.97 µM) and the MIC ([2]; IFO12937) was 0.78 µg/mL (≈ 1.98 µM). For the same molecule, the MIC ([3]; ATCC12983) was 0.05 µg/mL (≈ 0.127 µM), the MIC (E. coli KC-14; Table 2, read-out: MIC) was 0.05 µg/mL and the MIC (S. aureus Smith) was 0.012 µg/mL. The MIC ([4]; 308A1) was 0.05 µg/mL (≈ 0.127 µM), the MIC [5] was 0.2 µg/mL (≈ 0.508 µM) and the MIC ([6]; E14) was 0.1 µg/mL (≈ 0.254 µM). It also gave an MIC ([7]; IFO13956) of 0.2 µg/mL (≈ 0.508 µM), an MIC ([8]; S8) of 0.1 µg/mL (≈ 0.254 µM) and an MIC ([9]; IFO12582) of 3.13 µg/mL (≈ 7.96 µM). The MIC (Shigella flexneri EW-10) was 0.025 µg/mL (≈ 0.0636 µM), the MIC (Shigella sonnei EW-33) was 0.025 µg/mL (≈ 0.0636 µM) and the MIC [10] was 0.1 µg/mL (≈ 0.254 µM). The MIC ([11]; ATCC12228) was 0.05 µg/mL (≈ 0.127 µM), the MIC [12] was 1.56 µg/mL (≈ 3.97 µM) and the MIC [13] was 1.56 µg/mL (≈ 3.97 µM). It also gave an MIC (Escherichia coli O-111) of 0.2 µg/mL (≈ 0.508 µM), an MIC ([14]; IFO3895) of 0.39 µg/mL (≈ 0.991 µM) and an MIC [15] of 0.1 µg/mL (≈ 0.254 µM). It also gave an MIC ([16]; IFO3988) of 0.78 µg/mL (≈ 1.98 µM), an MIC ([17]; PCT219, inoculum 10^6 cells/ml, read-out: MIC) of 0.012 µg/mL (≈ 0.0305 µM) and an MIC [18] of 1.56 µg/mL (≈ 3.97 µM). It also gave an MIC ([19]; NIHJJC2) of 0.1 µg/mL (≈ 0.254 µM), an MIC ([20]; ATCC13006) of 0.39 µg/mL (≈ 0.991 µM) and an MIC [21] of 1.56 µg/mL (≈ 3.97 µM). The MIC [22] was 0.2 µg/mL (≈ 0.508 µM), the MIC [23] was 0.2 µg/mL (≈ 0.508 µM) and the MIC [24] was 0.05 µg/mL (≈ 0.127 µM). The MIC [25] was 0.025 µg/mL (≈ 0.0636 µM), the MIC [26] was 1.56 µg/mL (≈ 3.97 µM) and the MIC ([27]; IFO12648) was 0.78 µg/mL (≈ 1.98 µM). The MIC [28] was 1.56 µg/mL (≈ 3.97 µM), the MIC [29] was 0.025 µg/mL (≈ 0.0636 µM) and the MIC (Klebsiella pneumoniae DT) was 0.2 µg/mL (≈ 0.508 µM). It also gave an MIC (Escherichia coli T-7) of 0.1 µg/mL (≈ 0.254 µM) and an MIC [30] of 0.05 µg/mL (≈ 0.127 µM).

In the case of CC1COc2c(N3CCN(C)CC3)c(F)cc3c(=O)c(C(=O)O)cn1c23 (stereo not shown) [OFLX, 9-fluoro-3-methyl-10-(4-methyl-1-piperazinyl)-7-oxo-2,3-dihydro-7H-pyrido[1,2,3-de][1,4]-benzoxazine-6-carboxylic acid], the MIC [1, 31] was 0.2 µg/mL (≈ 0.553 µM), the MIC (Pseudomonas cepacia 739) was 0.78 µg/mL (≈ 2.16 µM) and the MIC ([2]; IFO12937, inoculum 10^6 cells/ml, read-out: MIC) was 0.39 µg/mL (≈ 1.08 µM). The MIC ([3]; ATCC12983, inoculum 10^6 cells/ml, 10% horse blood-added medium, read-out: MIC) was 0.39 µg/mL (≈ 1.08 µM), the MIC (E. coli KC-14) was 0.025 µg/mL and the MIC (S. aureus Smith) was 0.2 µg/mL. For the same molecule, the MIC ([4]; 308A1, inoculum 10^6 cells/ml, read-out: MIC) was 0.39 µg/mL (≈ 1.08 µM), the MIC [5, 32] was 1.56 µg/mL (≈ 4.32 µM) and the MIC ([6]; E14, inoculum 10^6 cells/ml, 10% horse blood-added medium, read-out: MIC) was 0.78 µg/mL (≈ 2.16 µM). It also gave an MIC ([7]; IFO13956, inoculum 10^6 cells/ml, 10% horse blood-added medium, read-out: MIC) of 3.13 µg/mL (≈ 8.66 µM), an MIC ([8]; S8, inoculum 10^6 cells/ml, 10% horse blood-added medium, read-out: MIC) of 0.78 µg/mL (≈ 2.16 µM) and an MIC ([9]; IFO12582, inoculum 10^6 cells/ml, read-out: MIC) of 1.56 µg/mL (≈ 4.32 µM). It also gave an MIC (Shigella flexneri EW-10) of 0.05 µg/mL (≈ 0.138 µM), an MIC (Shigella sonnei EW-33) of 0.025 µg/mL (≈ 0.0692 µM) and an MIC [10] of 0.05 µg/mL (≈ 0.138 µM). It also gave an MIC ([11]; ATCC12228, inoculum 10^6 cells/ml, 10% horse blood-added medium, read-out: MIC) of 0.2 µg/mL (≈ 0.553 µM), an MIC [12] of 0.1 µg/mL (≈ 0.277 µM) and an MIC [13] of 3.13 µg/mL (≈ 8.66 µM). It also gave an MIC (Escherichia coli O-111) of 0.05 µg/mL (≈ 0.138 µM), an MIC ([14]; IFO3895, inoculum 10^6 cells/ml, 10% horse blood-added medium, read-out: MIC) of 0.2 µg/mL (≈ 0.553 µM) and an MIC [15, 32] of 1.56 µg/mL (≈ 4.32 µM). For the same molecule, the MIC ([16]; IFO3988, inoculum 10^6 cells/ml, read-out: MIC) was 0.1 µg/mL (≈ 0.277 µM), the MIC ([17]; PCT219) was 0.05 µg/mL (≈ 0.138 µM) and the MIC [18] was 0.78 µg/mL (≈ 2.16 µM). The MIC ([19]; NIHJJC2, inoculum 10^6 cells/ml, read-out: MIC) was 0.1 µg/mL (≈ 0.277 µM), the MIC ([20]; ATCC13006, inoculum 10^6 cells/ml, read-out: MIC) was 0.2 µg/mL (≈ 0.553 µM) and the MIC [21] was 1.56 µg/mL (≈ 4.32 µM). For the same molecule, the MIC [22] was 0.05 µg/mL (≈ 0.138 µM), the MIC [23, 31] was 1.56 µg/mL (≈ 4.32 µM) and the MIC [24] was 0.025 µg/mL (≈ 0.0692 µM). The MIC [25, 31] was 0.2 µg/mL (≈ 0.553 µM), the MIC [26] was 6.25 µg/mL (≈ 17.3 µM) and the MIC ([27]; IFO12648, inoculum 10^6 cells/ml, read-out: MIC) was 0.2 µg/mL (≈ 0.553 µM). The MIC [28] was 0.39 µg/mL (≈ 1.08 µM), the MIC [29, 32] was 0.2 µg/mL (≈ 0.553 µM) and the MIC (Klebsiella pneumoniae DT; [32]) was 0.1 µg/mL (≈ 0.277 µM). It also gave an MIC (Escherichia coli T-7) of 0.05 µg/mL (≈ 0.138 µM) and an MIC [30, 31] of 0.78 µg/mL (≈ 2.16 µM).
